From US12479820B2, “Pyridin-3-yl derivatives” (Idorsia Pharmaceuticals Ltd, priority 2019, dated 2025)

Target: T1, human LPA1 receptor (Homo sapiens, UniProt Q92633)
T1 construct: TEV protease site; Gal4-VP16 transcription factor; host or cells: Tango EDG2-bla U2OS cells
Test: Beta-arrestin recruitment assay to determine IC50 values for human LPAR1
Assay type: cell-based
Settings: Tango EDG2-bla U2OS cells, antagonist assay, LPA 18:1 500 nM final
In short: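 Tango EDG2-bla U2OS cells were preincubated 30 min at 37 °C with compound. They were then stimulated with 500 nM (final) LPA 18:1 for 16 h. β-Lactamase reporter read by LiveBLAzer FRET substrate (2 h) as the 460/530 nm ratio; IC50 from 4-parameter logistic fit.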

T1 sequence (Q92633 whole entry, the tested form may be a part): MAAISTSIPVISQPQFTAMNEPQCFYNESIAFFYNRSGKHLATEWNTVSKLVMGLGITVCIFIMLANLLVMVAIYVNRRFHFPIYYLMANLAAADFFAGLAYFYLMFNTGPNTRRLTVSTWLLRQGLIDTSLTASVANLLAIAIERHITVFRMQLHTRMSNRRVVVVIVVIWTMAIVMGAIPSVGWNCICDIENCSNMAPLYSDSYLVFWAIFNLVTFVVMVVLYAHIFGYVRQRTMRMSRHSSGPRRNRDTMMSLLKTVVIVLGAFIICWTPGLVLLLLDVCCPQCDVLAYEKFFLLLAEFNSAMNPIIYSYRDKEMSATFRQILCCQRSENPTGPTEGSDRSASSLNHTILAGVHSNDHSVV

Compound | IC50 [nM]
CC(C)c1ccccc1C1(C(=O)Nc2cnc(Cl)cc2OC2CC2)CN(S(N)(=O)=O)C1 [Example 21-5, N-(6-chloro-4-cyclopropoxypyridin-3-yl)-3-(2-isopropylphenyl)-1-sulfamoylazetidine-3-carboxamide] | 6
COCCOc1cc(Cl)ncc1NC(=O)C1(c2ccccc2C(C)C)CN(S(N)(=O)=O)C1 [Example 21-6, N-(6-chloro-4-(2-methoxyethoxy)pyridin-3-yl)-3-(2-isopropylphenyl)-1-sulfamoylazetidine-3-carboxamide] | 44
COC[C@H](C)Oc1cc(Cl)ncc1NC(=O)C1(c2ccccc2C(C)C)CN(S(N)(=O)=O)C1 [Example 21-7, (S)-N-(6-chloro-4-((1-methoxypropan-2-yl)oxy)pyridin-3-yl)-3-(2-isopropylphenyl)-1-sulfamoylazetidine-3-carboxamide] | 3
COc1cc(Cl)ncc1NC(=O)C1(c2ccccc2C(C)C)CCN(S(N)(=O)=O)CC1 [Example 21-8, N-(6-chloro-4-methoxypyridin-3-yl)-4-(2-isopropylphenyl)-1-sulfamoylpiperidine-4-carboxamide] | 16
COc1cc(Br)ncc1NC(=O)C1(c2ccccc2C(C)C)CN(S(N)(=O)=O)C1 [Example 21-9, N-(6-bromo-4-methoxypyridin-3-yl)-3-(2-isopropylphenyl)-1-sulfamoylazetidine-3-carboxamide] | 2
COc1cc(C)ncc1NC(=O)C1(c2ccccc2C(C)C)CN(S(N)(=O)=O)C1 [Example 21-10, 3-(2-isopropylphenyl)-N-(4-methoxy-6-methylpyridin-3-yl)-1-sulfamoylazetidine-3-carboxamide] | 37
COc1cc(C(F)(F)F)ncc1NC(=O)C1(c2ccccc2C(C)C)CN(S(N)(=O)=O)C1 [Example 21-11, 3-(2-isopropylphenyl)-N-(4-methoxy-6-(trifluoromethyl)pyridin-3-yl)-1-sulfamoylazetidine-3-carboxamide] | 42
CNS(=O)(=O)N1CC(C(=O)Nc2cnc(Cl)cc2OC)(c2ccccc2C(C)C)C1 [Example 21-12, N-(6-chloro-4-methoxypyridin-3-yl)-3-(2-isopropylphenyl)-1-(N-methylsulfamoyl)azetidine-3-carboxamide] | 19
COc1cc(Cl)ncc1NC(=O)C1(c2ccccc2C(C)C)CN(S(=O)(=O)NC2CC2)C1 [Example 21-13, N-(6-chloro-4-methoxypyridin-3-yl)-1-(N-cyclopropylsulfamoyl)-3-(2-isopropylphenyl)azetidine-3-carboxamide] | 22
COc1cc(Cl)ncc1NC(=O)C1(c2c(F)cccc2C(C)C)CN(S(N)(=O)=O)C1 [Example 21-14, N-(6-chloro-4-methoxypyridin-3-yl)-3-(2-fluoro-6-isopropylphenyl)-1-sulfamoylazetidine-3-carboxamide] | 4
COc1cc(Cl)ncc1NC(=O)C1(c2cc(F)ccc2C(C)C)CN(S(N)(=O)=O)C1 [Example 21-15, N-(6-chloro-4-methoxypyridin-3-yl)-3-(5-fluoro-2-isopropylphenyl)-1-sulfamoylazetidine-3-carboxamide] | 5
COc1cc(Cl)ncc1NC(=O)C1(c2ncccc2C(C)C)CN(S(N)(=O)=O)C1 [Example 21-16, N-(6-chloro-4-methoxypyridin-3-yl)-3-(3-isopropylpyridin-2-yl)-1-sulfamoylazetidine-3-carboxamide] | 12
COc1cc(Cl)ncc1NC(=O)C1(c2nc(F)ccc2C(C)C)CN(S(N)(=O)=O)C1 [Example 21-17, N-(6-chloro-4-methoxypyridin-3-yl)-3-(6-fluoro-3-isopropylpyridin-2-yl)-1-sulfamoylazetidine-3-carboxamide] | 16
COc1ccncc1NC(=O)C1(c2ccccc2C(C)C)CN(S(N)(=O)=O)C1 [Example 21-18, 3-(2-isopropylphenyl)-N-(4-methoxypyridin-3-yl)-1-sulfamoylazetidine-3-carboxamide] | 1560
COc1cc(Cl)ncc1NC(=O)C1(c2ccccc2C2CCCC2)CN(S(N)(=O)=O)C1 [Example 21-19, N-(6-chloro-4-methoxypyridin-3-yl)-3-(2-cyclopentylphenyl)-1-sulfamoylazetidine-3-carboxamide] | 4
COCCNS(=O)(=O)N1CC(C(=O)Nc2cnc(Cl)cc2OC)(c2ccccc2C(C)C)C1 [Example 21-20, N-(6-chloro-4-methoxypyridin-3-yl)-3-(2-isopropylphenyl)-1-(N-(2-methoxyethyl)sulfamoyl)azetidine-3-carboxamide] | 73
COc1cc(Cl)ncc1NC(=O)C1(c2ccccc2C(C)C)CN(S(=O)(=O)NCCO)C1 [Example 21-21, N-(6-chloro-4-methoxypyridin-3-yl)-1-(N-(2-hydroxyethyl)sulfamoyl)-3-(2-isopropylphenyl)azetidine-3-carboxamide] | 56

The remaining lines, values ahead:

IC50 [nM] | Compound
22 | COc1cc(Cl)ncc1NC(=O)C1(c2ccccc2C(C)C)CN(C(N)=O)C1 [Example 22-1, N3-(6-chloro-4-methoxypyridin-3-yl)-3-(2-isopropylphenyl)azetidine-1,3-dicarboxamide]
12 | CNC(=O)N1CC(C(=O)Nc2cnc(Cl)cc2OC)(c2ccccc2C(C)C)C1 [Example 22-2, N3-(6-chloro-4-methoxypyridin-3-yl)-3-(2-isopropylphenyl)-N1-methylazetidine-1,3-dicarboxamide]
6 | CCNC(=O)N1CC(C(=O)Nc2cnc(Cl)cc2OC)(c2ccccc2C(C)C)C1 [Example 22-3, N3-(6-chloro-4-methoxypyridin-3-yl)-N1-ethyl-3-(2-isopropylphenyl)azetidine-1,3-dicarboxamide]
9 | COc1cc(Cl)ncc1NC(=O)C1(c2ccccc2C(C)C)CN(C(=O)NC(C)C)C1 [Example 22-4, N3-(6-chloro-4-methoxypyridin-3-yl)-N1-isopropyl-3-(2-isopropylphenyl)azetidine-1,3-dicarboxamide]
5 | COc1cc(Cl)ncc1NC(=O)C1(c2ccccc2C(C)C)CN(C(=O)NC2CC2)C1 [Example 22-5, N3-(6-chloro-4-methoxypyridin-3-yl)-N1-cyclopropyl-3-(2-isopropylphenyl)azetidine-1,3-dicarboxamide]
3 | COC[C@H](C)Oc1cc(Cl)ncc1NC(=O)C1(c2ccccc2C(C)C)CN(C(=O)NC2CC2)C1 [Example 22-6, (S)-N3-(6-chloro-4-((1-methoxypropan-2-yl)oxy)pyridin-3-yl)-N1-cyclopropyl-3-(2-isopropylphenyl)azetidine-1,3-dicarboxamide]
18 | COc1cc(Cl)ncc1NC(=O)C1(c2ncccc2C(C)C)CN(C(=O)NC2CC2)C1 [Example 22-7, N3-(6-chloro-4-methoxypyridin-3-yl)-N1-cyclopropyl-3-(3-isopropylpyridin-2-yl)azetidine-1,3-dicarboxamide]
12 | C=C(C)C(=O)OCCNC(=O)N1CC(C(=O)Nc2cnc(Cl)cc2OC)(c2ccccc2C(C)C)C1 [Example 22-8, 2-(3-((6-chloro-4-methoxypyridin-3-yl)carbamoyl)-3-(2-isopropylphenyl)azetidine-1-carboxamido)ethyl methacrylate]
15 | COCCNC(=O)N1CC(C(=O)Nc2cnc(Cl)cc2OC)(c2ccccc2C(C)C)C1 [Example 22-10, N3-(6-chloro-4-methoxypyridin-3-yl)-3-(2-isopropylphenyl)-N1-(2-methoxyethyl)azetidine-1,3-dicarboxamide]
18 | CCOC(=O)CNC(=O)N1CC(C(=O)Nc2cnc(Cl)cc2OC)(c2ccccc2C(C)C)C1 [Example 22-11, ethyl (3-((6-chloro-4-methoxypyridin-3-yl)carbamoyl)-3-(2-isopropylphenyl)azetidine-1-carbonyl)glycinate]
431 | COc1cc(Cl)ncc1NC(=O)C1(c2ccccc2C(C)C)CN(C(=O)NCC(=O)O)C1 [Example 22-12, (3-((6-chloro-4-methoxypyridin-3-yl)carbamoyl)-3-(2-isopropylphenyl)azetidine-1-carbonyl)glycine]
7 | CCOC(=O)CCNC(=O)N1CC(C(=O)Nc2cnc(Cl)cc2OC)(c2ccccc2C(C)C)C1 [Example 22-13, ethyl 3-(3-((6-chloro-4-methoxypyridin-3-yl)carbamoyl)-3-(2-isopropylphenyl)azetidine-1-carboxamido)propanoate]
204 | COc1cc(Cl)ncc1NC(=O)C1(c2ccccc2C(C)C)CN(C(=O)NCCC(=O)O)C1 [Example 22-14, 3-(3-((6-chloro-4-methoxypyridin-3-yl)carbamoyl)-3-(2-isopropylphenyl)azetidine-1-carboxamido)propanoic acid]
74 | COc1cc(Cl)ncc1NC(=O)C1(c2ccccc2C(C)C)CN(C(=O)N(C)C)C1 [Example 22-15, N^3-(6-chloro-4-methoxypyridin-3-yl)-3-(2-isopropylphenyl)-N1,N1-dimethylazetidine-1,3-dicarboxamide]
201 | COc1cc(Cl)ncc1NC(=O)C1(c2ccccc2C(C)C)CN(C(=O)N2CCOCC2)C1 [Example 22-16, N-(6-chloro-4-methoxypyridin-3-yl)-3-(2-isopropylphenyl)-1-(morpholine-4-carbonyl)azetidine-3-carboxamide]
6 | COC(=O)N1CC(C(=O)Nc2cnc(Cl)cc2OC)(c2ccccc2C(C)C)C1 [Example 23-1, Methyl 3-((6-chloro-4-methoxypyridin-3-yl)carbamoyl)-3-(2-isopropylphenyl)azetidine-1-carboxylate]
69 | COCCOC(=O)N1CC(C(=O)Nc2cnc(Cl)cc2OC)(c2ccccc2C(C)C)C1 [Example 23-2, 2-Methoxyethyl 3-((6-chloro-4-methoxypyridin-3-yl)carbamoyl)-3-(2-isopropylphenyl)azetidine-1-carboxylate]
